Results taken from paper PMC9743148 (Annals of oncology : official journal of the European …, 2020).

Test system: patients with advanced solid tumors
Experiment: Treatment-emergent adverse events
Assay type: in vivo, human
[1] = Combined t.i.w. cohorts (n = 42)

## C=CC(=O)N1CC[C@H](n2nc(C#Cc3cc(OC)cc(OC)c3)c3c(N)ncnc32)C1 [futibatinib]
Combined q.d. cohorts (n = 44)
  ALT increased TEAE, Any grade: 11 (25) n (%)
  ALT increased TEAE, Grade 1: 4 (9) n (%)
  ALT increased TEAE, Grade 2: 4 (9) n (%)
  ALT increased TEAE, Grade 3: 3 (7) n (%)
  ALT increased TEAE, Grade 4: 0 (0) n (%)
  AST increased TEAE, Any grade: 11 (25) n (%)
  AST increased TEAE, Grade 1: 4 (9) n (%)
  AST increased TEAE, Grade 2: 5 (11) n (%)
  AST increased TEAE, Grade 3: 2 (5) n (%)
  AST increased TEAE, Grade 4: 0 (0) n (%)
  Abdominal pain TEAE, Any grade: 6 (14) n (%)
  Abdominal pain TEAE, Grade 1: 1 (2) n (%)
  Abdominal pain TEAE, Grade 2: 4 (9) n (%)
  Abdominal pain TEAE, Grade 3: 1 (2) n (%)
  Abdominal pain TEAE, Grade 4: 0 (0) n (%)
  Alopecia TEAE, Any grade: 6 (14) n (%)
  Alopecia TEAE, Grade 1: 6 (14) n (%)
  Alopecia TEAE, Grade 2: 0 (0) n (%)
  Alopecia TEAE, Grade 3: 0 (0) n (%)
  Alopecia TEAE, Grade 4: 0 (0) n (%)
  Anemia TEAE, Any grade: 9 (20) n (%)
  Anemia TEAE, Grade 1: 1 (2) n (%)
  Anemia TEAE, Grade 2: 6 (14) n (%)
  Anemia TEAE, Grade 3: 2 (5) n (%)
  Anemia TEAE, Grade 4: 0 (0) n (%)
  Any TEAE, Any grade: 44 (100) n (%)
  Any TEAE, Grade 1: 5 (11) n (%)
  Any TEAE, Grade 2: 11 (25) n (%)
  Any TEAE, Grade 3: 21 (48) n (%)
  Any TEAE, Grade 4: 3 (7) n (%)
  Any treatment-related AE, Any grade: 41 (93) n (%)
  Any treatment-related AE, Grade 1: 13 (30) n (%)
  Any treatment-related AE, Grade 2: 11 (25) n (%)
  Any treatment-related AE, Grade 3: 16 (36) n (%)
  Any treatment-related AE, Grade 4: 1 (2) n (%)
  Asthenia TEAE, Any grade: 9 (20) n (%)
  Asthenia TEAE, Grade 1: 3 (7) n (%)
  Asthenia TEAE, Grade 2: 6 (14) n (%)
  Asthenia TEAE, Grade 3: 0 (0) n (%)
  Asthenia TEAE, Grade 4: 0 (0) n (%)
  Back pain TEAE, Any grade: 5 (11) n (%)
  Back pain TEAE, Grade 1: 3 (7) n (%)
  Back pain TEAE, Grade 2: 2 (5) n (%)
  Back pain TEAE, Grade 3: 0 (0) n (%)
  Back pain TEAE, Grade 4: 0 (0) n (%)
  Constipation TEAE, Any grade: 18 (41) n (%)
  Constipation TEAE, Grade 1: 13 (30) n (%)
  Constipation TEAE, Grade 2: 4 (9) n (%)
  Constipation TEAE, Grade 3: 1 (2) n (%)
  Constipation TEAE, Grade 4: 0 (0) n (%)
  Cough TEAE, Any grade: 5 (11) n (%)
  Cough TEAE, Grade 1: 5 (11) n (%)
  Cough TEAE, Grade 2: 0 (0) n (%)
  Cough TEAE, Grade 3: 0 (0) n (%)
  Cough TEAE, Grade 4: 0 (0) n (%)
  Decreased appetite TEAE, Any grade: 7 (16) n (%)
  Decreased appetite TEAE, Grade 1: 5 (11) n (%)
  Decreased appetite TEAE, Grade 2: 2 (5) n (%)
  Decreased appetite TEAE, Grade 3: 0 (0) n (%)
  Decreased appetite TEAE, Grade 4: 0 (0) n (%)
  Diarrhea TEAE, Any grade: 15 (34) n (%)
  Diarrhea TEAE, Grade 1: 9 (20) n (%)
  Diarrhea TEAE, Grade 2: 5 (11) n (%)
  Diarrhea TEAE, Grade 3: 1 (2) n (%)
  Diarrhea TEAE, Grade 4: 0 (0) n (%)
  Dose reduction because of TEAE, Any grade: 8 (18) n (%)
  Dose reduction because of TEAE, Grade 1: 0 (0) n (%)
  Dose reduction because of TEAE, Grade 2: 1 (2) n (%)
  Dose reduction because of TEAE, Grade 3: 6 (14) n (%)
  Dose reduction because of TEAE, Grade 4: 1 (2) n (%)
  Dosing delay/interruption because of TEAE, Any grade: 26 (59) n (%)
  Dosing delay/interruption because of TEAE, Grade 1: 1 (2) n (%)
  Dosing delay/interruption because of TEAE, Grade 2: 9 (20) n (%)
  Dosing delay/interruption because of TEAE, Grade 3: 16 (36) n (%)
  Dosing delay/interruption because of TEAE, Grade 4: 0 (0) n (%)
  Dry eye TEAE, Any grade: 5 (11) n (%)
  Dry eye TEAE, Grade 1: 4 (9) n (%)
  Dry eye TEAE, Grade 2: 1 (2) n (%)
  Dry eye TEAE, Grade 3: 0 (0) n (%)
  Dry eye TEAE, Grade 4: 0 (0) n (%)
  Dry mouth TEAE, Any grade: 11 (25) n (%)
  Dry mouth TEAE, Grade 1: 10 (23) n (%)
  Dry mouth TEAE, Grade 2: 1 (2) n (%)
  Dry mouth TEAE, Grade 3: 0 (0) n (%)
  Dry mouth TEAE, Grade 4: 0 (0) n (%)
  Dry skin TEAE, Any grade: 6 (14) n (%)
  Dry skin TEAE, Grade 1: 6 (14) n (%)
  Dry skin TEAE, Grade 2: 0 (0) n (%)
  Dry skin TEAE, Grade 3: 0 (0) n (%)
  Dry skin TEAE, Grade 4: 0 (0) n (%)
  Fatigue TEAE, Any grade: 7 (16) n (%)
  Fatigue TEAE, Grade 1: 3 (7) n (%)
  Fatigue TEAE, Grade 2: 3 (7) n (%)
  Fatigue TEAE, Grade 3: 1 (2) n (%)
  Fatigue TEAE, Grade 4: 0 (0) n (%)
  Headache TEAE, Any grade: 2 (5) n (%)
  Headache TEAE, Grade 1: 0 (0) n (%)
  Headache TEAE, Grade 2: 1 (2) n (%)
  Headache TEAE, Grade 3: 1 (2) n (%)
  Headache TEAE, Grade 4: 0 (0) n (%)
  Hypercalcemia TEAE, Any grade: 0 (0) n (%)
  Hypercalcemia TEAE, Grade 1: 0 (0) n (%)
  Hypercalcemia TEAE, Grade 2: 0 (0) n (%)
  Hypercalcemia TEAE, Grade 3: 0 (0) n (%)
  Hypercalcemia TEAE, Grade 4: 0 (0) n (%)
  Hyperphosphatemia TEAE, Any grade: 30 (68) n (%)
  Hyperphosphatemia TEAE, Grade 1: 13 (30) n (%)
  Hyperphosphatemia TEAE, Grade 2: 10 (23) n (%)
  Hyperphosphatemia TEAE, Grade 4: 0 (0) n (%)
  Hyperphosphatemia TEAE, grade 3: 7 (16) n (%)
  Hypomagnesemia TEAE, Any grade: 3 (7) n (%)
  Hypomagnesemia TEAE, Grade 1: 3 (7) n (%)
  Hypomagnesemia TEAE, Grade 2: 0 (0) n (%)
  Hypomagnesemia TEAE, Grade 3: 0 (0) n (%)
  Hypomagnesemia TEAE, Grade 4: 0 (0) n (%)
  Hyponatremia TEAE, Any grade: 2 (5) n (%)
  Hyponatremia TEAE, Grade 1: 0 (0) n (%)
  Hyponatremia TEAE, Grade 2: 0 (0) n (%)
  Hyponatremia TEAE, Grade 3: 2 (5) n (%)
  Hyponatremia TEAE, Grade 4: 0 (0) n (%)
  Nausea TEAE, Any grade: 13 (30) n (%)
  Nausea TEAE, Grade 1: 8 (18) n (%)
  Nausea TEAE, Grade 2: 3 (7) n (%)
  Nausea TEAE, Grade 3: 2 (5) n (%)
  Nausea TEAE, Grade 4: 0 (0) n (%)
  Onycholysis TEAE, Any grade: 1 (2) n (%)
  Onycholysis TEAE, Grade 1: 1 (2) n (%)
  Onycholysis TEAE, Grade 2: 0 (0) n (%)
  Onycholysis TEAE, Grade 3: 0 (0) n (%)
  Onycholysis TEAE, Grade 4: 0 (0) n (%)
  Pyrexia TEAE, Any grade: 5 (11) n (%)
  Pyrexia TEAE, Grade 1: 3 (7) n (%)
  Pyrexia TEAE, Grade 2: 1 (2) n (%)
  Pyrexia TEAE, Grade 3: 1 (2) n (%)
  Pyrexia TEAE, Grade 4: 0 (0) n (%)
  Rash TEAE, Any grade: 1 (2) n (%)
  Rash TEAE, Grade 1: 1 (2) n (%)
  Rash TEAE, Grade 2: 0 (0) n (%)
  Rash TEAE, Grade 3: 0 (0) n (%)
  Rash TEAE, Grade 4: 0 (0) n (%)
  Stomatitis TEAE, Any grade: 9 (20) n (%)
  Stomatitis TEAE, Grade 1: 6 (14) n (%)
  Stomatitis TEAE, Grade 2: 2 (5) n (%)
  Stomatitis TEAE, Grade 3: 1 (2) n (%)
  Stomatitis TEAE, Grade 4: 0 (0) n (%)
  Treatment discontinuation because of TEAE, Any grade: 2 (5) n (%)
  Treatment discontinuation because of TEAE, Grade 1: 0 (0) n (%)
  Treatment discontinuation because of TEAE, Grade 2: 1 (2) n (%)
  Treatment discontinuation because of TEAE, Grade 3: 1 (2) n (%)
  Treatment discontinuation because of TEAE, Grade 4: 0 (0) n (%)
  Urinary tract infection TEAE, Any grade: 0 (0) n (%)
  Urinary tract infection TEAE, Grade 1: 0 (0) n (%)
  Urinary tract infection TEAE, Grade 2: 0 (0) n (%)
  Urinary tract infection TEAE, Grade 3: 0 (0) n (%)
  Urinary tract infection TEAE, Grade 4: 0 (0) n (%)
  Vomiting TEAE, Any grade: 11 (25) n (%)
  Vomiting TEAE, Grade 1: 6 (14) n (%)
  Vomiting TEAE, Grade 2: 3 (7) n (%)
  Vomiting TEAE, Grade 3: 2 (5) n (%)
  Vomiting TEAE, Grade 4: 0 (0) n (%)
[1]
  ALT increased TEAE, Any grade: 5 (12) n (%)
  ALT increased TEAE, Grade 1: 3 (7) n (%)
  ALT increased TEAE, Grade 2: 1 (2) n (%)
  ALT increased TEAE, Grade 3: 1 (2) n (%)
  ALT increased TEAE, Grade 4: 0 (0) n (%)
  AST increased TEAE, Any grade: 4 (10) n (%)
